In patent US9925189B2, “Heterocyclic receptor agonists for the treatment of diabetes and metabolic disorders” (CymaBay Therapeutics, Inc., priority 2006, dated 2018):

target: T1, IC-GPCR2 (Homo sapiens, UniProt Q8TDV5, S309L); experiment: Stimulation of cAMP in CHO cells stably expressing IC-GPCR2 (HTRF cAMP assay); assay type: cell-based; conditions: 0.5 h, 30 minutes, IC-GPCR2 stably expressing CHO cells, read-out: Activity at 10 uM (% change in FRET signal from DMSO control)
T1 construct: expressed in transfected cells
T1 sequence (Q8TDV5 1-335 S309L): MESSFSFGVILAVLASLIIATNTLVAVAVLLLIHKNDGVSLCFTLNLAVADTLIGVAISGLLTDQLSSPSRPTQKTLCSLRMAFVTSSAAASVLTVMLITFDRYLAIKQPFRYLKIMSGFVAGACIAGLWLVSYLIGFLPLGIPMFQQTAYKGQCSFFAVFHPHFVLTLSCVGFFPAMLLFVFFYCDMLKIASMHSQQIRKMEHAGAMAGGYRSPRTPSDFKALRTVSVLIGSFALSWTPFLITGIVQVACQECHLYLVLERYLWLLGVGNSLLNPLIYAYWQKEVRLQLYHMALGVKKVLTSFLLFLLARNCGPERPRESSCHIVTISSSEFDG
Experimental: This assay was developed using a stable cell line expressing IC-GPCR-2, generated as follows. IC-GPCR2 (SEQ ID NO:1) was cloned into Gateway pDEST 40vector (Invitrogen), using the Gateway cloning system (invitrogen) according to the manufacturer's instructions. A stable cell line was generated by transfecting a 10 cm plate of CHO cells (source) with 8 ug of this construct using Transit-CHO transfection kit (Mirus). CHO cells were plated the day prior to transfection at a density of 3,000,000 cells/plate. Clones were selected using the antibiotic G418 at 500 ug/ml. 23 clones were picked and assayed for the expression of the receptor by measuring changes in intracellular cAMP levels in response to an IC-GPCR2 agonist.
To measure cAMP activity in response to IC-GPCR2 agonist, the clones were plated in 96 well plates at 17500 cells per well. On the day after plating, cells were incubated with the IC-CPCR2 agonist at […] for 30 minutes in Ham's F12 Media (Gibco) with 0.04% DMSO. cAMP was measured using the cAMP dynamic kit from Cis Bio (Bedford, Mass.) according to the manufacturer's instructions. Briefly, cells were lysed, and cAMP levels determined by competitive immunoassay using D2 labeled cAMP, and europium cryptate tagged anti cAMP antibody. When in close proximity, the D2 and europium cryptate undergo fluorescence resonance energy transfer (FRET), which is measured as a fluorescence ratio (665 nm/620 nm). Unlabelled cAMP in the cell lysate competed with the D2 labeled cAMP for the europium crypate labeled antibody. The resulting decrease in FRET signal corresponded to intracellular cAMP levels. Fluorescence was read on a BMG Labtech PHERAstar, software version 1.50.
Compounds were dissolved in 100% DMSO to a concentration of […] to provide stock solutions. To determine activity against IC-GPCR2, compounds were incubated with IC-GPCR2 stably expressing cells (described above), at 6-8 concentrations ranging from 0.00003 to 10 micromolar, in 96 well plates, in 50 ul of Hams F12 media for 30 minutes. Cells were plated at 17500 cells per well 1 day before running the assay. All compounds were also screened against the parental CHO cells. cAMP was measured using the cAMP dynamic kit from Cis Bio (Bedford, Mass.), according to the manufacturer's instructions. Briefly, cells were lysed and cAMP levels determined by competitive immunoassay using D2 labeled cAMP, and europium cryptate tagged anti cAMP antibody. When in close proximity, the D2 and europium cryptate undergo fluorescence resonance energy transfer (FRET), which is measured as a fluorescence ratio (665 nm/620 nm). Unlabelled cAMP in the cell lysate competed with the D2 labeled cAMP for the europium crypate labeled antibody. The resulting decrease in FRET signal corresponded to intracellular cAMP levels.
Activities of compounds disclosed in Table 1 and Table 2 below are expressed as the % change in FRET signal from DMSO control. “*” no activity observed when tested at 10 micromolar but no higher concentrations were tested. NT indicates the compound was not tested at the indicated concentration.

Q: `CS(=O)(=O)c1ccc(OCc2csc(C3CCN(C(=O)OC45CC6CC(CC(C6)C4)C5)CC3)n2)cc1` [Example 25, 4-[4-(4-Methanesulfonyl-phenoxymethyl)-thiazol-2-yl]-piperidine-1-carboxylic acid adamantan-1-yl ester] was tested. Which activation at 10 µM did it give?
A: 23%

Q: Which activation at 10 µM does the source give for `COC(=O)N1CCC(c2nc(COc3ccc(S(C)(=O)=O)cc3)cs2)CC1` [Example 26, 4-[4-(4-Methanesulfonyl-phenoxymethyl)-thiazol-2-yl]-piperidine-1-carboxylic acid methyl ester] here?
A: 58%

Q: How did the activation at 10 µM turn out when `CS(=O)(=O)c1ccc(OCc2csc(C3CCN(C(=O)Oc4ccc(F)cc4)CC3)n2)cc1` [Example 27, 4-[4-(4-Methanesulfonyl-phenoxymethyl)-thiazol-2-yl]-piperidine-1-carboxylic acid 4-fluoro-phenyl ester] was run?
A: 63%

Q: For `COc1ccc(OC(=O)N2CCC(c3nc(COc4ccc(S(C)(=O)=O)cc4)cs3)CC2)cc1` [Example 28, 4-[4-(4-Methanesulfonyl-phenoxymethyl)-thiazol-2-yl]-piperidine-1-carboxylic acid 4-methoxy-phenyl ester], which activation at 10 µM is on record?
A: 62%

Q: `CS(=O)(=O)c1ccc(OCc2csc(C3CCN(C(=O)Oc4cccc5ccccc45)CC3)n2)cc1` [Example 29, 4-[4-(4-Methanesulfonyl-phenoxymethyl)-thiazol-2-yl]-piperidine-1-carboxylic acid naphthalen-1-yl ester] was tested. Which activation at 10 µM did it give?
A: 51%

Q: For `CC(C)COC(=O)N1CCC(c2nc(COc3ccc(-n4cnnn4)cc3)cs2)CC1` [Example 30, 4-[4-(4-Tetrazol-1-yl-phenoxymethyl)-thiazol-2-yl]-piperidine-1-carboxylic acid isobutyl ester], which activation at 10 µM is on record?
A: 73%

Q: For `CCCCCOC(=O)N1CCC(c2nc(COc3ccc(-n4cnnn4)cc3)cs2)CC1` [Example 31, 4-[4-(4-Tetrazol-1-yl-phenoxymethyl)-thiazol-2-yl]-piperidine-1-carboxylic acid pentyl ester], which activation at 10 µM is on record?
A: 88%

Q: For `O=C(OCCF)N1CCC(c2nc(COc3ccc(-n4cnnn4)cc3)cs2)CC1` [Example 32, 4-[4-(4-Tetrazol-1-yl-phenoxymethyl)-thiazol-2-yl]-piperidine-1-carboxylic acid 2-fluoro-ethyl ester], which activation at 10 µM is on record?
A: 88%

Q: With `CCCCOC(=O)N1CCC(c2nc(COc3ccc(-n4cnnn4)cc3)cs2)CC1` [Example 33, 4-[4-(4-Tetrazol-1-yl-phenoxymethyl)-thiazol-2-yl]-piperidine-1-carboxylic acid butyl ester] as the molecule, how does the activation at 10 µM read?
A: 77%

Q: Which activation at 10 µM does the source give for `CC(C)(C)COC(=O)N1CCC(c2nc(COc3ccc(-n4cnnn4)cc3)cs2)CC1` [Example 34, 4-[4-(4-Tetrazol-1-yl-phenoxymethyl)-thiazol-2-yl]-piperidine-1-carboxylic acid 2,2-dimethyl-propyl ester] here?
A: 70%

Q: `CCCCCCOC(=O)N1CCC(c2nc(COc3ccc(-n4cnnn4)cc3)cs2)CC1` [Example 35, 4-[4-(4-Tetrazol-1-yl-phenoxymethyl)-thiazol-2-yl]-piperidine-1-carboxylic acid hexyl ester] was tested. Which activation at 10 µM did it give?
A: 64%

Q: `CCCCC(CC)COC(=O)N1CCC(c2nc(COc3ccc(-n4cnnn4)cc3)cs2)CC1` (centres unmarked) [Example 36, 4-[4-(4-Tetrazol-1-yl-phenoxymethyl)-thiazol-2-yl]-piperidine-1-carboxylic acid 2-ethyl-hexyl ester] was tested. Which activation at 10 µM did it give?
A: 95%

Q: Which activation at 10 µM does the source give for `O=C(OCCOCc1ccccc1)N1CCC(c2nc(COc3ccc(-n4cnnn4)cc3)cs2)CC1` [Example 37, 4-[4-(4-Tetrazol-1-yl-phenoxymethyl)-thiazol-2-yl]-piperidine-1-carboxylic acid 2-benzyloxy-ethyl ester] here?
A: 80%

Q: For `CC(C)[C@@H]1CC[C@@H](C)C[C@H]1OC(=O)N1CCC(c2nc(COc3ccc(-n4cnnn4)cc3)cs2)CC1` [Example 38, 4-[4-(4-Tetrazol-1-yl-phenoxymethyl)-thiazol-2-yl]-piperidine-1-carboxylic acid 2-isopropyl-5-methyl-cyclohexyl ester], which activation at 10 µM is on record?
A: 39%

Q: For `CS(=O)(=O)c1ccc(OCc2csc(C3CCN(C(=O)C45CC6CC(CC(C6)C4)C5)CC3)n2)cc1` [Example 39, Adamantan-1-yl-{4-[4-(4-methanesulfonyl-phenoxymethyl)-thiazol-2-yl]-piperidin-1-yl}-methanone], which activation at 10 µM is on record?
A: 9%

Q: Which activation at 10 µM does the source give for `CS(=O)(=O)c1ccc(OCc2csc(C3CCN(C(=O)c4cccnc4)CC3)n2)cc1` [Example 40, {4-[4-(4-Methanesulfonyl-phenoxymethyl)-thiazol-2-yl]-piperidin-1-yl}-pyridin-3-yl-methanone] here?
A: 21%

Q: How did the activation at 10 µM turn out when `CC(C)(C)CC(=O)N1CCC(c2nc(COc3ccc(-n4cnnn4)cc3)cs2)CC1` [Example 41, 3,3-Dimethyl-1-{4-[4-(4-tetrazol-1-yl-phenoxymethyl)-thiazol-2-yl]-piperidin-1-yl}-butan-1-one] was run?
A: 75%

Q: `COC(=O)C(=O)N1CCC(c2nc(COc3ccc(-n4cnnn4)cc3)cs2)CC1` [Example 42, Oxo-{4-[4-(4-tetrazol-1-yl-phenoxymethyl)-thiazol-2-yl]-piperidin-1-yl}-acetic acid methyl ester] was tested. Which activation at 10 µM did it give?
A: 67%

Q: With `CCOC(=O)CC(=O)N1CCC(c2nc(COc3ccc(-n4cnnn4)cc3)cs2)CC1` [Example 43, 3-Oxo-3-{4-[4-(4-tetrazol-1-yl-phenoxymethyl)-thiazol-2-yl]-piperidin-1-yl}-propionic acid ethyl ester] as the molecule, how does the activation at 10 µM read?
A: 47%

Q: With `CN1CCN(C(=O)N2CCC(c3nc(COc4ccc(-n5cnnn5)cc4)cs3)CC2)CC1` [Example 44, (4-Methyl-piperazin-1-yl)-{4-[4-(4-tetrazol-1-yl-phenoxymethyl)-thiazol-2-yl]-piperidin-1-yl}-methanone] as the molecule, how does the activation at 10 µM read?
A: 53%

Q: `CCN(CC)C(=O)N1CCC(c2nc(COc3ccc(-n4cnnn4)cc3)cs2)CC1` [Example 45, 4-[4-(4-Tetrazol-1-yl-phenoxymethyl)-thiazol-2-yl]-piperidine-1-carboxylic acid diethylamide] was tested. Which activation at 10 µM did it give?
A: 84%

Q: Which activation at 10 µM does the source give for `CCNC(=O)N1CCC(c2nc(COc3ccc(-n4cnnn4)cc3)cs2)CC1` [Example 46, 4-[4-(4-Tetrazol-1-yl-phenoxymethyl)-thiazol-2-yl]-piperidine-1-carboxylic acid ethylamide] here?
A: 30%

Q: Which activation at 10 µM does the source give for `CS(=O)(=O)c1ccc(OCc2csc(C3CCN(c4ncccn4)CC3)n2)cc1` [Example 47, 2-{4-[4-(4-Methanesulfonyl-phenoxymethyl)-thiazol-2-yl]-piperidin-1-yl}-pyrimidine] here?
A: 51%

Q: Which activation at 10 µM does the source give for `CCc1cnc(N2CCC(c3nc(COc4ccc(S(C)(=O)=O)cc4)cs3)CC2)nc1` [Example 51, 5-Ethyl-2-{4-[4-(4-methanesulfonyl-phenoxymethyl)-thiazol-2-yl]-piperidin-1-yl}-pyrimidine] here?
A: 57%

Q: With `Brc1cnc(N2CCC(c3nc(COc4ccc(-n5cnnn5)cc4)cs3)CC2)nc1` [Example 54, 5-Bromo-2-{4-[4-(4-tetrazol-1-yl-phenoxymethyl)-thiazol-2-yl]-piperidin-1-yl}-pyrimidine] as the molecule, how does the activation at 10 µM read?
A: 58%

same assay, conditions: 30 minutes, IC-GPCR2 stably expressing CHO cells

Q: For `CCc1cnc(N2CCC(c3nc(COc4ccc(-n5cnnn5)cc4)cs3)CC2)nc1` [Example 52, 5-Ethyl-2-{4-[4-(4-tetrazol-1-yl-phenoxymethyl)-thiazol-2-yl]-piperidin-1-yl}-pyrimidine], which “Activity at 10 uM (% change in FRET signal from DMSO control)” value is on record?
A: 67%
